From patent US4225586A, “Antibiotic SB-72310” (Takeda Chemical Industries, Ltd., priority 1978, dated 1980)
Counter-ions that a name gives are not always drawn.

Experiments:
mice = experiment: Acute toxicity, intravenous; type: in vivo
Protocol: The acute toxicity of the sodium salt of Antibiotic SB-72310 is low, with no deaths being encountered when 500 mg/kg of the salt was administered to mice by the intravenous route.

Solubility in solvents = type: physicochemical
[1] = Stability in aqueous solution; type: physicochemical
Protocol: 12. Stability: Stable in aqueous solution in the range of pH 3 to 7 at 60° C. for 10 minute heating; unstable over pH 8.5.
10. Stability: Stable in aqueous solution in the range of pH 3 to 7 at 60° C. for 10 minute heating; unstable over pH 8.5.

[2] = tested on: Alcaligenes faecalis IFO 13111; experiment: Antimicrobial spectrum, paper disk method; type: cell-based; settings: IFO13111, 25 μl of 10 mg/ml in 8 mm paper disks, Trypticasesoy-broth-agar, read-out: Inhibition diameter
Protocol: (§1) The biological characteristics of SB-72310 are as follows.
(§2) Antimicrobial spectra of SB-72310(Inhibition diameter (mm)
(§3) by paper disk method) (25 μl of test solution of 10 mg/ml
(§4) is absorbed in paper disks of 8 mm diameter)
(§5) Medium = Trypticasesoy-broth-agar

Bacillus cereus IFO 3466 = experiment: Antimicrobial spectrum, paper disk method; type: cell-based; settings: IFO3466, 25 μl of 10 mg/ml in 8 mm paper disks, Trypticasesoy-broth-agar, read-out: Inhibition diameter
Protocol: as §1, §2, §3, §4, §5

[3] = tested on: Bacillus subtilis IFO 3513; experiment: Antimicrobial spectrum, paper disk method; type: cell-based; settings: IFO3513, 25 μl of 10 mg/ml in 8 mm paper disks, Trypticasesoy-broth-agar, read-out: Inhibition diameter
Protocol: as §1, §2, §3, §4, §5

[4] = tested on: Comamonas terrigena IFD 12685; experiment: Antimicrobial spectrum, paper disk method; type: cell-based; settings: IFD12685, 25 μl of 10 mg/ml in 8 mm paper disks, Trypticasesoy-broth-agar, read-out: Inhibition diameter
Protocol: as §1, §2, §3, §4, §5

[5] = tested on: Escherichia coli NIHJ JC-2; experiment: Antimicrobial spectrum, paper disk method; type: cell-based; settings: NIHJJC2, 25 μl of 10 mg/ml in 8 mm paper disks, Trypticasesoy-broth-agar, read-out: Inhibition diameter
Protocol: as §1, §2, §3, §4, §5

[6] = tested on: Klebsiella pneumoniae IFO 3318; experiment: Antimicrobial spectrum, paper disk method; type: cell-based; settings: IFO3318, 25 μl of 10 mg/ml in 8 mm paper disks, Trypticasesoy-broth-agar, read-out: Inhibition diameter
Protocol: as §1, §2, §3, §4, §5

[7] = tested on: Proteus mirabilis IFO 3849; experiment: Antimicrobial spectrum, paper disk method; type: cell-based; settings: IFO3849, 25 μl of 10 mg/ml in 8 mm paper disks, Trypticasesoy-broth-agar, read-out: Inhibition diameter
Protocol: as §1, §2, §3, §4, §5

[8] = tested on: Proteus vulgaris IFO 3045; experiment: Antimicrobial spectrum, paper disk method; type: cell-based; settings: IFO3045, 25 μl of 10 mg/ml in 8 mm paper disks, Trypticasesoy-broth-agar, read-out: Inhibition diameter
Protocol: as §1, §2, §3, §4, §5

[9] = tested on: Pseudomonas fluorescens IFO 3081; experiment: Antimicrobial spectrum, paper disk method; type: cell-based; settings: IFO3081, 25 μl of 10 mg/ml in 8 mm paper disks, Trypticasesoy-broth-agar, read-out: Inhibition diameter
Protocol: as §1, §2, §3, §4, §5

[10] = tested on: Salmonella typhimurium IFO 12529; experiment: Antimicrobial spectrum, paper disk method; type: cell-based; settings: Salmonella enterica, 25 μl of 10 mg/ml in 8 mm paper disks, Trypticasesoy-broth-agar, read-out: Inhibition diameter
Protocol: as §1, §2, §3, §4, §5

Sarcina lutea IFO 3232 = experiment: Antimicrobial spectrum, paper disk method; type: cell-based; settings: Micrococcus luteus, IFO3232, 25 μl of 10 mg/ml in 8 mm paper disks, Trypticasesoy-broth-agar, read-out: Inhibition diameter
Protocol: as §1, §2, §3, §4, §5

[11] = tested on: Serratia marcescens IFO 12648; experiment: Antimicrobial spectrum, paper disk method; type: cell-based; settings: IFO12648, 25 μl of 10 mg/ml in 8 mm paper disks, Trypticasesoy-broth-agar, read-out: Inhibition diameter
Protocol: as §1, §2, §3, §4, §5

[12] = tested on: Staphylococcus aureus FDA 209P; experiment: Antimicrobial spectrum, paper disk method; type: cell-based; settings: FDA209P, 25 μl of 10 mg/ml in 8 mm paper disks, Trypticasesoy-broth-agar, read-out: Inhibition diameter
Protocol: as §1, §2, §3, §4, §5

gram-positive bacteria = experiment: Antibacterial activity against gram-positive bacteria; type: cell-based; settings: paper disk method, Table 2
Protocol: as §1, §2, §3, §4, §5

gram-negative bacteria = experiment: Antibacterial activity against gram-negative bacteria; type: cell-based; settings: paper disk method, Table 2
Protocol: as §1, §2, §3, §4, §5

[13] = Basicity, neutrality or acidity; type: physicochemical
[14] = aqueous solution, pH 3 to 7, 60° C., 10 minute heating

SMILES | Solubility in solvents (Solubility in solvents; acetone) | Solubility in solvents (Solubility in solvents; benzene) | Solubility in solvents (Solubility in solvents; chloroform) | Solubility in solvents (Solubility in solvents; diethyl ether) | Solubility in solvents (Solubility in solvents; dimethylsulfoxide) | Solubility in solvents (Solubility in solvents; ethanol) | Solubility in solvents (Solubility in solvents; ethyl acetate) | Solubility in solvents (Solubility in solvents; hexane) | Solubility in solvents (Solubility in solvents; methanol) | Solubility in solvents (Solubility in solvents; petroleum ether) | Solubility in solvents (Solubility in solvents; pyridine) | Solubility in solvents (Solubility in solvents; water) | Stability [1, 14] | Stability ([1]; over pH 8.5) | further results
COC1(NC(=O)C(C)NC(=O)CCC(N)C(=O)O)CN(S(=O)(=O)O)C1=O (stereo not shown) [SB-72310 sodium salt] | Insoluble | Insoluble | Insoluble | Insoluble | soluble | sparingly soluble | Insoluble | Insoluble | sparingly soluble | Insoluble | sparingly soluble | readily soluble | Stable | unstable | Acute toxicity (mice): low; Deaths (mice; 500 mg/kg): no deaths
COC1(NC(=O)C(C)NC(=O)CCC(N)C(=O)O)CN(S(=O)(=O)O)C1=O (stereo not shown) [SB-72310] | sparingly soluble | Insoluble | Insoluble | Insoluble | soluble | sparingly soluble | Insoluble | Insoluble | soluble | Insoluble | sparingly soluble | readily soluble | Stable | unstable | zone of inhibition at 10000 µg/mL [2]: 23 mm; zone of inhibition at 10000 µg/mL (Bacillus cereus IFO 3466): 14.5 mm; zone of inhibition at 10000 µg/mL [3]: 22 mm; zone of inhibition at 10000 µg/mL [4]: 25 mm; zone of inhibition at 10000 µg/mL [5]: 14.5 mm; zone of inhibition at 10000 µg/mL [6]: 12.5 mm; zone of inhibition at 10000 µg/mL [7]: 19 mm; zone of inhibition at 10000 µg/mL [8]: 18 mm; zone of inhibition at 10000 µg/mL [9]: 12.5 mm; zone of inhibition at 10000 µg/mL [10]: 18.5 mm; zone of inhibition at 10000 µg/mL (Sarcina lutea IFO 3232): 23 mm; zone of inhibition at 10000 µg/mL [11]: 17 mm; zone of inhibition at 10000 µg/mL [12]: 18.5 mm; Activity against gram-positive bacteria (gram-positive bacteria): active; Activity against gram-negative bacteria (gram-negative bacteria): active; Basicity, neutrality or acidity [13]: Acid
